From PMC5480602 (Slas Discovery, 2017)

Legend:
[1] = read-out: plasma levels (Cmax); in patients; cited from earlier work
[2] = target: α3β4α5 nAChR (Homo sapiens, UniProt P30532+P30926+P32297); assay: cell-based
[3] = target: α4β2 nAChR (Homo sapiens, UniProt P17787+P43681); assay: cell-based
[4] = cited from earlier work
[5] = target: α3β4 nAChR (Homo sapiens, UniProt P30926+P32297); assay: cell-based
[6] = cited from earlier work; remark: listed apart in the source

Sequence of α4β2 nAChR (P43681 29-627 limits assumed): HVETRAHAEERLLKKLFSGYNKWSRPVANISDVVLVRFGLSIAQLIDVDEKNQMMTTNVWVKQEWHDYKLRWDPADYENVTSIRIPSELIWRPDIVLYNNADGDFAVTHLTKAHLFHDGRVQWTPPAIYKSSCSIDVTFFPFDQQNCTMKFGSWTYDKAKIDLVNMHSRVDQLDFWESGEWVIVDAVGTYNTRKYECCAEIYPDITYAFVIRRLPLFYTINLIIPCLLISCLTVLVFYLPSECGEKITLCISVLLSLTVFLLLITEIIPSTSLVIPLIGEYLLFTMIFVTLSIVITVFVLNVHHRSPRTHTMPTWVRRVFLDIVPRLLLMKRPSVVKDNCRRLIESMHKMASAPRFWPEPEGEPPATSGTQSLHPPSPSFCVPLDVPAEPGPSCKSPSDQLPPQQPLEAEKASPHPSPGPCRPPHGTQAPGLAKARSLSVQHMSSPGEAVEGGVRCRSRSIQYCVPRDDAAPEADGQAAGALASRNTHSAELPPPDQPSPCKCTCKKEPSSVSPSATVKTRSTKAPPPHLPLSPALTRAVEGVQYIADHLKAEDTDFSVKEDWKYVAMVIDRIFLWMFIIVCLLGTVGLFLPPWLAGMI
Sequence of α4β2 nAChR (P17787 26-502): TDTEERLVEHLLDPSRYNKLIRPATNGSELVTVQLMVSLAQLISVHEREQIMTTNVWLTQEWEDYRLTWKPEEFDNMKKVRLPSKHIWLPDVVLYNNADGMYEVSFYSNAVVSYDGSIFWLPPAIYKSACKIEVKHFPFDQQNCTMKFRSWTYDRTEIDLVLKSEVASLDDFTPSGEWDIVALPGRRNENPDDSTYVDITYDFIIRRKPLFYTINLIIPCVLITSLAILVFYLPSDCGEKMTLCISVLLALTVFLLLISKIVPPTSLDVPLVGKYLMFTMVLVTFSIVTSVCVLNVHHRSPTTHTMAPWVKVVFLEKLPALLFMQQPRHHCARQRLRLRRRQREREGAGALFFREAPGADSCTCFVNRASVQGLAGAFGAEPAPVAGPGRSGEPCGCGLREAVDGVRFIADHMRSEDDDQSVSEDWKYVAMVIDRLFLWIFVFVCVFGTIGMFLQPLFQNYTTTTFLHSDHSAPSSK
Sequence of α3β4 nAChR (P32297 32-505): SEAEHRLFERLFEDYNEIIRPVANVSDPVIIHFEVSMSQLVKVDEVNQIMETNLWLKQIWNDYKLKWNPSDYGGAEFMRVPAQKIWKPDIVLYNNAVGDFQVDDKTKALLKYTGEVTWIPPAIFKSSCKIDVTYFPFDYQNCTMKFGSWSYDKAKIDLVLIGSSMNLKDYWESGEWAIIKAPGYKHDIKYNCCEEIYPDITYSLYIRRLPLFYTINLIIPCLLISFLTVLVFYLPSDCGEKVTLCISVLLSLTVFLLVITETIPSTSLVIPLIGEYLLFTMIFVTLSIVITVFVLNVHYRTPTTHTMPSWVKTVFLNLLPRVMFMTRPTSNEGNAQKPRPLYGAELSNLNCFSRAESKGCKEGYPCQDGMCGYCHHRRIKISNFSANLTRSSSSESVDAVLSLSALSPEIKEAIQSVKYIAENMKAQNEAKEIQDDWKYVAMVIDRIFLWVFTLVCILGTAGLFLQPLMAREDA
Sequence of α3β4 nAChR (P30926 22-498): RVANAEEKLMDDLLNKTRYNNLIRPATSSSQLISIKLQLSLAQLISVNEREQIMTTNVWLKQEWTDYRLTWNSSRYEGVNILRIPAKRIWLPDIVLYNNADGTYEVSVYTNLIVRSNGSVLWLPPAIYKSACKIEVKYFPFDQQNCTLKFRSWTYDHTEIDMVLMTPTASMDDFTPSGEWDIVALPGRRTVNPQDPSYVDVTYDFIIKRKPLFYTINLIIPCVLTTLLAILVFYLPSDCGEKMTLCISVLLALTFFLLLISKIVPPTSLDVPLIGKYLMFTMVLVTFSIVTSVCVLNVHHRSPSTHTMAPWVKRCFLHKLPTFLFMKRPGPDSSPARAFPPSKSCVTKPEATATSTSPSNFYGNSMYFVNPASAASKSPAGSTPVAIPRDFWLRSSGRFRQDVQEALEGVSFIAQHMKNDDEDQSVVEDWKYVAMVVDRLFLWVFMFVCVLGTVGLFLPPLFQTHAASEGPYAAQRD
Sequence of α3β4α5 nAChR (P32297 32-505): as the sequence (P32297 32-505) above
Sequence of α3β4α5 nAChR (P30926 22-498): as the sequence (P30926 22-498) above
Sequence of α3β4α5 nAChR (P30532 23-468): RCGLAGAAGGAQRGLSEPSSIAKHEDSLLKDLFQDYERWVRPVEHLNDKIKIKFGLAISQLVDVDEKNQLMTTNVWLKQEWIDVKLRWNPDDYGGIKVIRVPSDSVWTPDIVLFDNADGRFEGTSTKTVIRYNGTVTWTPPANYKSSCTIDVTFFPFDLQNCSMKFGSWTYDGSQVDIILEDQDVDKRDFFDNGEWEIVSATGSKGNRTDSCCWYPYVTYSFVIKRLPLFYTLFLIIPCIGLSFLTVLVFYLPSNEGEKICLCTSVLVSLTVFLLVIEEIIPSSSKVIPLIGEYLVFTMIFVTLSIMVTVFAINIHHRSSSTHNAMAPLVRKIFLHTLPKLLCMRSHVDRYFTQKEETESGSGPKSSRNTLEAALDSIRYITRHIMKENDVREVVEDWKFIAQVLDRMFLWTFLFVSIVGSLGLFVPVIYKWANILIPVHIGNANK

| Compound | Cmax [1] [nM] | IC50 [2] [µM] | IC50 [3] [µM] | efficiency of crossing the blood-brain barrier [4] | IC50 [5] [µM] | efficiency in crossing the blood-brain barrier [4] | plasma concentrations [6] |
| --- | --- | --- | --- | --- | --- | --- | --- |
| NC1=NCC2c3ccccc3Cc3ccccc3N12 (stereo not shown) [epinastine] | ~100 | ≥ 1 | ≥ 1 | ~ 10% | ≥ 1 | – | – |
| N=C(N)c1ccc(OCCCCCOc2ccc(C(=N)N)cc2)cc1 [pentamidine] | – | – | – | – | – | ~ 0.04% | ~ 1.8 µM |
